Entries after “also recorded” stand apart in the source; their conditions may differ.
Key:
advanced carcinomas = test: Phase I/IIa clinical study (GlutaDON): stabilization/progression by RECIST criteria; format: in vivo, human; details: for Progression (share of patients) / Stabilization (share of patients): Total
Description: In a phase I/IIa clinical study (GlutaDON®), altogether 58 patients with advanced carcinomas were treated with the combination of the two active ingredients described herein. The patients received PEG-PGA in a dosage of 120 IU/m^2 twice a week by the intravenous route, the infusion lasting 15 minutes. The administration of PEG-PGA was followed after 2-4 hours by the intravenous application of DON in a concentration of 5-185 mg/m^2. The duration of the infusion was again 15 minutes. […] According to the internationally accepted RECIST criteria, the term “stabilization” means that the increase in the measurable tumor diameters was less than 20% six weeks or more after the screening, i.e. after the staging of the tumor before the first treatment. According to the internationally accepted RECIST criteria, the term “progression” means that a growth of more than 20%, or a subjective progression, or new lesions were observed within six weeks.

[1] = GlutaDON study: side effects (nausea and vomiting); format: in vivo, human; details: DON up to 185 mg/m^2 in combination with PEG-PGA 120 IU/m^2 twice a week
Description: In a phase I/IIa clinical study (GlutaDON®), altogether 58 patients with advanced carcinomas were treated with the combination of the two active ingredients described herein. The patients received PEG-PGA in a dosage of 120 IU/m^2 twice a week by the intravenous route, the infusion lasting 15 minutes. The administration of PEG-PGA was followed after 2-4 hours by the intravenous application of DON in a concentration of 5-185 mg/m^2. The duration of the infusion was again 15 minutes.

[2] = dosages of up to 600 mg/m^2 twice a week; cited from earlier work
[3] = Colon, high DON dosage 105-185 mg/m^2, with PEG-PGA 120 IU/m^2
[4] = Colon, low DON dosage 5-80 mg/m^2, with PEG-PGA 120 IU/m^2
[5] = Kidney, high DON dosage 105-185 mg/m^2 i.v., after PEG-PGA 120 IU/m^2 twice a week
[6] = Kidney, low DON dosage 5-80 mg/m^2 i.v., after PEG-PGA 120 IU/m^2 twice a week
[7] = Other indications, high DON dosage 105-185 mg/m^2, with PEG-PGA 120 IU/m^2
[8] = Other indications, low DON dosage 5-80 mg/m^2, with PEG-PGA 120 IU/m^2
[9] = Ovary, high DON dosage 105-185 mg/m^2, with PEG-PGA 120 IU/m^2
[10] = Ovary, low DON dosage 5-80 mg/m^2, with PEG-PGA 120 IU/m^2
[11] = Prostate, high DON dosage 105-185 mg/m^2, with PEG-PGA 120 IU/m^2
[12] = Prostate, low DON dosage 5-80 mg/m^2, with PEG-PGA 120 IU/m^2
[13] = Total (10 patients), high DON dosage 105-185 mg/m^2, with PEG-PGA 120 IU/m^2
[14] = Total (36 patients), low DON dosage 5-80 mg/m^2, with PEG-PGA 120 IU/m^2
[15] = high DON dosage 105-185 mg/m^2, with PEG-PGA 120 IU/m^2
[16] = low DON dosage 5-80 mg/m^2, with PEG-PGA 120 IU/m^2

[N-]=[N+]=CC(=O)CC[C@H](N)C(=O)O [DON, 6-diazo-5-oxo-L-norleucine]
Progression (number of patients) (advanced carcinomas; [3]): 1 patients
Stabilization (number of patients) (advanced carcinomas; [3]): 0 patients
Progression (number of patients) (advanced carcinomas; [4]): 4 patients
Stabilization (number of patients) (advanced carcinomas; [4]): 2 patients
Progression (number of patients) (advanced carcinomas; [5]): 0 patients
Stabilization (number of patients) (advanced carcinomas; [5]): 4 patients
Progression (number of patients) (advanced carcinomas; [6]): 4 patients
Stabilization (number of patients) (advanced carcinomas; [6]): 5 patients
Progression (number of patients) (advanced carcinomas; [7]): 1 patients
Stabilization (number of patients) (advanced carcinomas; [7]): 0 patients
Progression (number of patients) (advanced carcinomas; [8]): 10 patients
Stabilization (number of patients) (advanced carcinomas; [8]): 4 patients
Progression (number of patients) (advanced carcinomas; [9]): 0 patients
Stabilization (number of patients) (advanced carcinomas; [9]): 1 patients
Progression (number of patients) (advanced carcinomas; [10]): 4 patients
Stabilization (number of patients) (advanced carcinomas; [10]): 1 patients
Progression (number of patients) (advanced carcinomas; [11]): 1 patients
Stabilization (number of patients) (advanced carcinomas; [11]): 2 patients
Progression (number of patients) (advanced carcinomas; [12]): 1 patients
Stabilization (number of patients) (advanced carcinomas; [12]): 1 patients
Progression (number of patients) (advanced carcinomas; [13]): 3 patients
Stabilization (number of patients) (advanced carcinomas; [13]): 7 patients
Progression (number of patients) (advanced carcinomas; [14]): 23 patients
Stabilization (number of patients) (advanced carcinomas; [14]): 13 patients
Progression (share of patients) (advanced carcinomas; [15]): 30%
Stabilization (share of patients) (advanced carcinomas; [15]): 70%
Progression (share of patients) (advanced carcinomas; [16]): 64%
Stabilization (share of patients) (advanced carcinomas; [16]): 36%
Nausea and vomiting as dose-limiting side effects [1]: without nausea and vomiting being found to be dosage-limiting side effects; also recorded: not dose-limiting
Action of DON used by itself [2]: very modest action
Nausea and vomiting with DON used by itself [2]: dosage-limiting side effects

From patent US8465736B2, “Glutadon” (priority 2006, dated 2013)
